Read-outs that look alike come from different tables or passages of the source.
Assays:
human BACE-1 = human BACE-1 (Homo sapiens (Human), UniProt P56817); experiment: Test 1: Inhibition of human BACE-1
human BACE-2 = human BACE-2 (Homo sapiens (Human), UniProt Q9Y5Z0); experiment: Test 2: Inhibition of human BACE-2; type: biochemical
From the text: Test 2: Inhibition of Human BACE-2

[1] = read-out: BACE-1 IC50, mean IC50, recombinant BACE-1, acetate buffer pH 4.5, fluorescence-quenched peptide substrate
[2] = mean IC50, recombinant BACE-2, acetate buffer pH 4.5, fluorescence-quenched peptide substrate, read-out: BACE-2 IC50

Chain of human BACE-2 (Q9Y5Z0 63-473): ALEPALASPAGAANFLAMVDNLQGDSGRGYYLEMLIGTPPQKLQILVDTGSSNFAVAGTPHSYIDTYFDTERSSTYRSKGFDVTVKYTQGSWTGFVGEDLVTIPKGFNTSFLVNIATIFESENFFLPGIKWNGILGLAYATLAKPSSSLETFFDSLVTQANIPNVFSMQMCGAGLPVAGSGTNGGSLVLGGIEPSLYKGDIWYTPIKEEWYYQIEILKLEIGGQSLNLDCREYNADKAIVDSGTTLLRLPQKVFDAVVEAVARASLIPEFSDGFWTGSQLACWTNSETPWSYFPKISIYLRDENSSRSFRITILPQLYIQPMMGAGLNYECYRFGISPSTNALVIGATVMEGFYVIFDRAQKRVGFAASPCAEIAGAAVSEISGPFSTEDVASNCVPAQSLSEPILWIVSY
Chain of human BACE-1 (P56817 46-457): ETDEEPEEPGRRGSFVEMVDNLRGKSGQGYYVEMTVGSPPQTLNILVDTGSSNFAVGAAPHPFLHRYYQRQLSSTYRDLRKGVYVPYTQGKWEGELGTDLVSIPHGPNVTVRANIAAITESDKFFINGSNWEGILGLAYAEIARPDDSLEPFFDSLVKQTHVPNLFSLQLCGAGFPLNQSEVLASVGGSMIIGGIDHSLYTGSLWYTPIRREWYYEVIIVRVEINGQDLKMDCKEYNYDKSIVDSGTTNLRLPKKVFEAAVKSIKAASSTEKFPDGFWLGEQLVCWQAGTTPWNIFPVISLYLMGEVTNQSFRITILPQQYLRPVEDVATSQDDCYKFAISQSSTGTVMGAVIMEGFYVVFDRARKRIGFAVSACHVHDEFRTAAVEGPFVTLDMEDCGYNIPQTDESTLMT

SMILES | IC50 (human BACE-1; [1]) [µM] | IC50 (human BACE-2; [2]) [µM] | IC50 (human BACE-1) [µM] | IC50 (human BACE-2) [µM]
Cc1cc(C(N)=S)cnc1C(=O)Nc1cc(C2(CF)COCC(N)=N2)ccn1 (stereo not drawn) [Example 15, 5-Fluoromethyl-5-{2-[(3-methyl-5-thiocarbamoyl-pyridine-2-carbonyl)-amino]-pyridin-4-yl}-5,6-dihydro-2H-[1,4]oxazin-3-yl-ammonium trifluoro-acetate] |  |  | > 10 | > 10
C[C@@]1(c2cccc(NC(=O)c3ncc(OCC(F)(F)F)nc3N)n2)CO[C@@](C)(C(F)(F)F)C(N)=N1 [Example 23, 3-Amino-5-(2,2,2-trifluoro-ethoxy)-pyrazine-2-carboxylic acid [6-((3R,6R)-5-amino-3,6-dimethyl-6-trifluoromethyl-3,6-dihydro-2H-[1,4]oxazin-3-yl)-pyridin-2-yl]-amide] | 1.2 | > 10 |  | 
COCCn1ccc2nc(C(=O)Nc3ccc(F)c([C@]4(C)CO[C@@](C)(C(F)(F)F)C(N)=N4)n3)c(N)nc21 [Example 43, 3-Amino-5-(2-methoxy-ethyl)-5H-pyrrolo[2,3-b]pyrazine-2-carboxylic acid [6-((3R,6R)-5-amino-3,6-dimethyl-6-trifluoromethyl-3,6-dihydro-2H-[1,4]oxazin-3-yl)-5-fluoro-pyridin-2-yl]amide] | 1.2 |  |  | > 10
[2H]c1nc(C(=O)Nc2cccc(C3(CF)COCC(N)=N3)n2)c(C([2H])([2H])[2H])c([2H])c1Cl (stereo not drawn) [Example 6, 5-{6-[(4,6-Dideutero-5-chloro-3-trideuteromethyl-pyridine-2-carbonyl)-amino]-pyridin-2-yl}-5-fluoromethyl-5,6-dihydro-2H-[1,4]oxazin-3-yl-ammonium trifluoro acetate] |  |  | 0.55 | 0.24
NC1=NC(CF)(c2ccnc(NC(=O)c3ccc(Cl)cn3)c2)COC1 (stereo not drawn) [Example 14, 5-{2-[(5-Chloro-pyridine-2-carbonyl)-amino]-pyridin-4-yl}-5-fluoromethyl-5,6-dihydro-2H-[1,4]oxazin-3-yl-ammonium trifluoro-acetate] | 8.1 | 4.8 |  | 
[2H]c1nc(C(=O)Nc2cccc([C@]3(C)CO[C@@](C)(C(F)(F)F)C(N)=N3)n2)c(C([2H])([2H])[2H])c([2H])c1Cl [Example 21, 5-Chloro-4,6-dideuterio-3-trideuteriomethyl-pyridine-2-carboxylic acid [6-((3R,6R)-5-amino-3,6-dimethyl-6-trifluoromethyl-3,6-dihydro-2H-[1,4]oxazin-3-yl)-pyridin-2-yl]-amide] |  |  | 0.031 | 0.008
Cc1cc(C#N)cnc1C(=O)Nc1cc([C@]2(C)COC(CF)(CF)C(N)=N2)c(F)cn1 [Example 37, 5-Cyano-3-methyl-pyridine-2-carboxylic acid [4-((R)-5-amino-6,6-bis-fluoromethyl-3-methyl-3,6-dihydro-2H-[1,4]oxazin-3-yl)-5-fluoro-pyridin-2-yl]-amide] | 0.38 | 0.43 |  | 
C[C@@]1(c2nc(NC(=O)c3nc4ccn(CC(F)F)c4nc3N)ccc2F)CO[C@@](C)(C(F)(F)F)C(N)=N1 [Example 45, 3-Amino-5-(2,2-difluoro-ethyl)-5H-pyrrolo[2,3-b]pyrazine-2-carboxylic acid [6-((3R,6R)-5-amino-3,6-dimethyl-6-trifluoromethyl-3,6-dihydro-2H-[1,4]oxazin-3-yl)-5-fluoro-pyridin-2-yl]amide] |  |  | > 10 | > 10
COCCn1ccc2nc(C(=O)Nc3ccc(F)c([C@]4(C)CO[C@@](C)(C(F)(F)F)C(N)=N4)n3)c(Cl)cc21 [Example 48, 6-Chloro-1-(2-methoxy-ethyl)-1H-pyrrolo[3,2-b]pyridine-5-carboxylic acid [6-((3R,6R)-5-amino-3,6-dimethyl-6-trifluoromethyl-3,6-dihydro-2H-[1,4]oxazin-3-yl)-5-fluoro-pyridin-2-yl]-amide] | 7.3 |  |  | > 10
CC1(c2cccc(NC(=O)c3ccc(Br)cn3)n2)COCC(N)=N1 (racemic) [Example 2, 5-Bromo-pyridine-2-carboxylic acid [6-(5-amino-3-methyl-3,6-dihydro-2H-[1,4]-oxazin-3-yl)-pyridin-2-yl]-amide] | 0.79 | 0.36 |  | 
C[C@@]1(c2cccc(NC(=O)c3ccc(Br)cn3)n2)COCC(N)=N1 [Example 1, 5-Bromo-pyridine-2-carboxylic acid [6-((R)-5-amino-3-methyl-3,6-dihydro-2H-[1,4]-oxazin-3-yl)-pyridin-2-yl]-amide] | 0.39 | 0.26 |  | 

Continued, in another order:

IC50 (human BACE-1; [1]) [µM] | IC50 (human BACE-2; [2]) [µM] | SMILES | IC50 (human BACE-1) [µM] | IC50 (human BACE-2) [µM]
0.026 | 0.024 | Cc1cc(OC(F)F)cnc1C(=O)Nc1ccc(F)c([C@]2(C)CO[C@@](C)(C(F)(F)F)C(N)=N2)n1 [Example 29, 5-Difluoromethoxy-3-methyl-pyridine-2-carboxylic acid [6-((3R,6R)-5-amino-3,6-dimethyl-6-trifluoromethyl-3,6-dihydro-2H-[1,4]oxazin-3-yl)-5-fluoro-pyridin-2-yl]amide] |  | 
1.5 | 6.5 | Cc1cc(C#N)cnc1C(=O)Nc1ccc(F)c([C@@]2(C(F)F)COCC(N)=N2)n1 [Example 39, 5-Cyano-3-methyl-pyridine-2-carboxylic acid [6-((S)-5-amino-3-difluoromethyl-3,6-dihydro-2H-[1,4]oxazin-3-yl)-5-fluoro-pyridin-2-yl]-amide] |  | 
0.15 | 0.12 | C[C@@]1(c2cc(NC(=O)c3ncc(C#N)cc3Cl)ncc2F)CO[C@@](C)(C(F)(F)F)C(N)=N1 [Example 35, 3-Chloro-5-cyano-pyridine-2-carboxylic acid [4-((3R,6R)-5-amino-3,6-dimethyl-6-trifluoromethyl-3,6-dihydro-2H-[1,4]oxazin-3-yl)-5-fluoro-pyridin-2-yl]-amide] |  | 
0.013 | 0.005 | C[C@@]1(c2cccc(NC(=O)c3ncc(Br)cc3Cl)n2)CO[C@@](C)(C(F)(F)F)C(N)=N1 [Example 22, 5-Bromo-3-chloro-pyridine-2-carboxylic acid [6-((3R,6R)-5-amino-3,6-dimethyl-6-trifluoromethyl-3,6-dihydro-2H-[1,4]oxazin-3-yl)-pyridin-2-yl]-amide] |  | 
0.01 | 0.005 | C[C@@]1(c2nc(NC(=O)c3nn(C(F)F)cc3Cl)ccc2F)CO[C@@](C)(C(F)(F)F)C(N)=N1 [Example 46, 4-Chloro-1-difluoromethyl-1H-pyrazole-3-carboxylic acid [6-((3R,6R)-5-amino-3,6-dimethyl-6-trifluoromethyl-3,6-dihydro-2H-[1,4]oxazin-3-yl)-5-fluoro-pyridin-2-yl]-amide] |  | 
0.82 | 0.33 | Cc1cnc(C(=O)Nc2ccc(F)c([C@]3(C)CO[C@@](C)(C(F)(F)F)C(N)=N3)n2)cn1 [Example 33, 5-Methyl-pyrazine-2-carboxylic acid [6-((3R,6R)-5-amino-3,6-dimethyl-6-trifluoromethyl-3,6-dihydro-2H-[1,4]oxazin-3-yl)-5-fluoro-pyridin-2-yl]amide] |  | 
0.005 | 0.02 | Cc1cc(C#N)cnc1C(=O)Nc1cccc([C@]2(C)CO[C@@](C)(C(F)(F)F)C(N)=N2)n1 [Example 8, 5-Cyano-3-methyl-pyridine-2-carboxylic acid [6-((3R,6R)-5-amino-3,6-dimethyl-6-trifluoro-methyl-3,6-dihydro-2H-[1,4]oxazin-3-yl)-pyridin-2-yl]-amide] |  | 
0.033 | 0.16 | Cc1cc(C#N)cnc1C(=O)Nc1ccc(F)c([C@]2(C(F)F)COCC(N)=N2)n1 [Example 38, 5-Cyano-3-methyl-pyridine-2-carboxylic acid [6-((R)-5-amino-3-difluoromethyl-3,6-dihydro-2H-[1,4]oxazin-3-yl)-5-fluoro-pyridin-2-yl]-amide] |  | 
0.045 | 0.007 | Cc1cc(OCF)cnc1C(=O)Nc1ccc(F)c([C@]2(C)CO[C@@](C)(C(F)(F)F)C(N)=N2)n1 [Example 32, 5-Fluoromethoxy-3-methyl-pyridine-2-carboxylic acid [6-((3R,6R)-5-amino-3,6-dimethyl-6-trifluoromethyl-3,6-dihydro-2H-[1,4]oxazin-3-yl)-5-fluoro-pyridin-2-yl]amide] |  | 
0.042 | 0.17 | N#Cc1cnc(C(=O)Nc2ccc(F)c([C@]3(C(F)F)COCC(N)=N3)n2)c(Cl)c1 [Example 40, 3-Chloro-5-cyano-pyridine-2-carboxylic acid [6-((R)-5-amino-3-difluoromethyl-3,6-dihydro-2H-[1,4]oxazin-3-yl)-5-fluoro-pyridin-2-yl]-amide] |  | 

— patent US8637508B2, “Heterocyclic derivatives and their use in the treatment of neurological disorders” (Novartis AG, priority 2011, dated 2014)
